For 34 compounds, IC50 results are on record in patent US20090270435A1 (priority 2006, published 2009).

Counter-ions that a name gives are not always drawn. A value given as a limit tells only on which side of the number the result lay.

As usually defined, the IC50 is the concentration that gives 50% inhibition.

In the test the target is T1, ACC1 from rat liver (Rattus norvegicus, UniProt P11497).
T1 construct: The livers (for ACC1 preparation) or skeletal muscle tissue (for ACC2 preparation) are removed; from tissue; host or cells: liver of male CD rats (fasted, then fed a high sucrose diet)
Description: Direct inhibition of ACC1 activity (14C-bicarbonate incorporation). It is filed as biochemical. The essentials:
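ACC1 partially purified from livers of fasted/sucrose-refed male rats by PEG and ammonium sulfate fractionation, then preincubated 30 min at 37°C with 10 mM citrate and 1.0 mM MgCl2. Reaction ran 7 min at 37°C, stopped with HCl; acid-stable radioactivity counted by scintillation; HCl-first tubes served as blanks.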

The compound `Cc1cc2c(cc1C)C(=O)CC1(CCN(C(=O)c3ccc4c(c3)ncn4C)CC1)O2` [Ex. L23, 6,7-dimethyl-1′-[(1-methyl-1H-benzimidazol-5-yl)carbonyl]spiro[chromene-2,4′-piperidin]-4(3H)-one trifluoroacetic acid salt] showed an IC50 (ACC1 from rat liver) of 1170 nM.

With `Cc1cc2c(cc1C)C(=O)CC1(CCN(C(=O)c3ccc4c(c3)CC(=O)N4)CC1)O2` [Ex. L13, 6,7-dimethyl-1′-[(2-oxo-2,3-dihydro-1H-indol-5-yl)carbonyl]spiro[chromene-2,4′-piperidin]-4(3H)-one], the half-inhibitory concentration (IC50) (ACC1 from rat liver) was < 3000 nM.

As to `Cc1cc2c(cc1C)C(=O)CC1(CCN(C(=O)c3ccc4c(c3)[nH]c(=O)n4C)CC1)O2` [Ex. L32, 6,7-dimethyl-1′-[(1-methyl-2-oxo-2,3-dihydro-1H-benzimidazol-5-yl)carbonyl]spiro[chromene-2,4′-piperidin]-4(3H)-one], for the setting “ACC1 from rat liver”, the IC50 turned out to be 190 nM.

For the compound `O=C(O)c1ccc2c(c1)C(=O)CC1(CCN(C(=O)c3cccc(-c4cc[nH]n4)c3)CC1)O2` [Ex. N1, 4-oxo-1′-[3-(1H-pyrazol-3-yl)benzoyl]-3,4-dihydrospiro[chromene-2,4′-piperidine]-6-carboxylic acid trifluoroacetic acid salt], the IC50 (ACC1 from rat liver) was 891 nM.

Take `COc1cccc2c1C(=O)CC1(CCN(C(=O)c3ccc4[nH]c(C)c(C)c4c3)CC1)O2` [Ex. L11, 1′-[(2,3-dimethyl-1H-indol-5-yl)carbonyl]-5-methoxyspiro[chromene-2,4′-piperidin]-4(3H)-one]: under “ACC1 from rat liver”, half-maximal inhibition (IC50) required 113 nM.

For the setting “ACC1 from rat liver”, `Cc1cc2c(cc1C)C(=O)CC1(CCN(C(=O)c3ccc4c(C)n[nH]c4c3)CC1)O2` [Ex. F1, 6,7-dimethyl-1′-[(3-methyl-1H-indazol-6-yl)carbonyl]spiro[chromene-2,4′-piperidin]-4(3H)-one] gave an IC50 of 35.7 nM.

On to `Cc1cc2c(cc1C)C(=O)CC1(CCN(C(=O)c3cccc4[nH]cnc34)CC1)O2` [Ex. L17, 1′-(1H-benzimidazol-4-ylcarbonyl)-6,7-dimethylspiro[chromene-2,4′-piperidin]-4(3H)-one trifluoroacetic acid salt], for which the 50% inhibitory concentration (IC50) (ACC1 from rat liver) was 885 nM.

`COc1ccc2c(c1)OC1(CCN(C(=O)c3cc(Cl)c4[nH]ncc4c3)CC1)CC2=O` [Ex. B7, 1′-[(7-chloro-1H-indazol-5-yl)carbonyl]-7-methoxyspiro[chromene-2,4′-piperidin]-4(3H)-one] registered an IC50 (ACC1 from rat liver) of 166 nM.

Under “ACC1 from rat liver”, `COc1cccc2c1C(=O)CC1(CCN(C(=O)c3ccc4[nH]c5c(c4c3)CCCC5)CC1)O2` [Ex. L16, 5-methoxy-1′-(2,3,4,9-tetrahydro-1H-carbazol-6-ylcarbonyl)spiro[chromene-2,4′-piperidin]-4(3H)-one] showed an IC50 of 65 nM.

For the compound `Cc1cc2c(cc1C)C(=O)CC1(CCN(C(=O)c3ccc4c(c3)nc(C)n4C)CC1)O2` [Ex. L28, 1′-[(1,2-dimethyl-1H-benzimidazol-5-yl)carbonyl]-6,7-dimethylspiro[chromene-2,4′-piperidin]-4(3H)-one], half-maximal inhibition (ACC1 from rat liver) (IC50) required 3150 nM.

As for `CNC(=O)c1ccc2c(c1)C(=O)CC1(CCN(C(=O)c3cccc(-c4cc[nH]n4)c3)CC1)O2` [Ex. M4, N-methyl-4-oxo-1′-[3-(1H-pyrazol-3-yl)benzoyl]-3,4-dihydrospiro[chromene-2,4′-piperidine]-6-carboxamide], under “Table of Examples M1-M36”, the midpoint of inhibition, the IC50, lay at 110 nM.

The compound `COC(=O)c1ccc2c(c1)C(=O)CC1(CCN(C(=O)c3cc(C)c4[nH]ncc4c3)CC1)O2` [Ex. A11, methyl 1-[(7-methyl-1H-indazol-5-yl)carbonyl]-4-oxo-3,4-dihydrospiro[chromene-2,4-piperidine]-6-carboxylate] came in with an IC50 (ACC1 from rat liver) of 40 nM.

With `O=C1CC2(CCN(C(=O)c3cccc(-c4cc[nH]n4)c3)CC2)Oc2cc(F)ccc21` [Ex. M34, 7-Fluoro-1′-[3-(1H-pyrazol-3-yl)benzoyl]spiro[chromene-2,4′-piperidin]-4(3H)-one], the IC50 (Table of Examples M1-M36) was 817 nM.

`Cc1cc(C(=O)N2CCC3(CC2)CC(=O)c2cc(S(C)(=O)=O)ccc2O3)cc2cn[nH]c12` [Ex. A35, 1′-[(7-methyl-1H-indazol-5-yl)carbonyl]-6-(methylsulfonyl)spiro[chromene-2,4′-piperidin]-4(3H)-one]: under “ACC1 from rat liver”, the IC50 was found to be 1110 nM.

In turn, `COc1ccc2c(c1F)C(=O)CC1(CCN(C(=O)c3cc(Cl)c4[nH]ncc4c3)CC1)O2` [Ex. B11] showed an IC50 (ACC1 from rat liver) of 217 nM.

In the case of `Cc1cc2c(cc1C)C(=O)CC1(CCN(C(=O)c3ccc4c(c3)CCC(=O)N4)CC1)O2` [L44, 6,7-dimethyl-1′-[(2-oxo-1,2,3,4-tetrahydroquinolin-6-yl)carbonyl]spiro[chromene-2,4′-piperidin]-4(3H)-one], for the setting “ACC1 from rat liver”, the IC50 is < 3000 nM.

Turning to `Cc1n[nH]c2cc(C(=O)N3CCC4(CC3)CC(=O)c3cc(C(=O)O)ccc3O4)ccc12` [Ex. F5, 1′-[(3-methyl-1H-indazol-6-yl)carbonyl]-4-oxo-3,4-dihydrospiro[chromene-2,4′-piperidine]-6-carboxylic acid trifluoroacetic acid salt], the IC50 (ACC1 from rat liver) worked out at 586 nM.

With “6-chloro-1′-[(7-chloro-1H-indazol-5-yl)carbonyl]spiro[chromene-2,4′-piperidin]-4(3H)-one [Ex. B8]”, under “ACC1 from rat liver”, the IC50 worked out at 166 nM.

In turn, “5,7-dichloro-1′-[(7-chloro-1H-indazol-5-yl)carbonyl]spiro[chromene-2,4′-piperidin]-4(3H)-one [Ex. B9]” yielded an IC50 (ACC1 from rat liver) of 180 nM.

Consider `Cc1cc2c(cc1C)C(=O)CC1(CCN(C(=O)c3ccc4nc[nH]c4c3)CC1)O2` [Ex. L33, 1′-(1H-benzimidazol-6-ylcarbonyl)-6,7-dimethylspiro[chromene-2,4′-piperidin]-4(3H)-one], for which the IC50 (ACC1 from rat liver) worked out at 99.9 nM.

As to `COc1cc(Cl)c2c(c1)OC1(CCN(C(=O)c3cccc(-c4ccn[nH]4)c3)CC1)CC2=O` [Ex. O2, 5-chloro-7-methoxy-1′-[3-(1H-pyrazol-5-yl)benzoyl]spiro[chromene-2,4′-piperidin]-4(3H)-one], the IC50 (Table of Examples O1-O4) was 55 nM.

Consider `Cc1nc2cc(C(=O)N3CCC4(CC3)CC(=O)c3cc(C)c(C)cc3O4)ccc2[nH]1` [Ex. L24, 6,7-dimethyl-1′-[(2-methyl-1H-benzimidazol-5-yl)carbonyl]spiro[chromene-2,4′-piperidin]-4(3H)-one trifluoroacetic acid salt], for which the IC50 (ACC1 from rat liver) was 825 nM.

Consider `Cc1[nH]c2ccc(C(=O)N3CCC4(CC3)CC(=O)c3cc(Cl)ccc3O4)cc2c1C` [Ex. L12, 6-chloro-1′-[(2,3-dimethyl-1H-indol-5-yl)carbonyl]spiro[chromene-2,4′-piperidin]-4(3H)-one], for which the 50% inhibitory concentration (IC50) (ACC1 from rat liver) was < 1000 nM.

`Cc1cc2c(cc1C)C(=O)CC1(CCN(C(=O)c3cccc(-c4cc[nH]n4)c3)CC1)O2` [Ex. M2, 6,7-dimethyl-1′-[3-(1H-pyrazol-3-yl)benzoyl]spiro[chromene-2,4′-piperidin]-4(3H)-one] gave an IC50 (Table of Examples M1-M36) of 73.6 nM.

`Cc1cc2c(cc1C)C(=O)CC1(CCN(C(=O)c3ccc4[nH]nnc4c3)CC1)O2` [Ex. L37, 1′-(1H-1,2,3-benzotriazol-5-ylcarbonyl)-6,7-dimethylspiro[chromene-2,4′-piperidin]-4(3H)-one] gave an IC50 (ACC1 from rat liver) of 151 nM.

As to `Cc1cc2c(cc1C)C(=O)CC1(CCN(C(=O)c3ccc4[nH]c(-c5ccccn5)nc4c3)CC1)O2` [Ex. L26, 6,7-dimethyl-1′-[(2-pyridin-2-yl-1H-benzimidazol-5-yl)carbonyl]spiro[chromene-2,4′-piperidin]-4(3H)-one trifluoroacetic acid salt], under “ACC1 from rat liver”, the IC50 turned out to be 63.5 nM.

Consider `CC(C)n1nnc2cc(C(=O)N3CCC4(CC3)CC(=O)c3cc(Cl)ccc3O4)ccc21` [Ex. L42, 6-chloro-1′-[(1-isopropyl-1H-1,2,3-benzotriazol-5-yl)carbonyl]spiro[chromene-2,4′-piperidin]-4(3H)-one], for which, for the setting “ACC1 from rat liver”, the IC50 was > 1000 nM.

For `CC(C)NC(=O)c1ccc2c(c1)C(=O)CC1(CCN(C(=O)c3cccc(-c4cc[nH]n4)c3)CC1)O2` [Ex. M17, N-isopropyl-4-oxo-1′-[3-(1H-pyrazol-3-yl)benzoyl]3,4-dihydrospiro[chromene-2,4′-piperidine]-6-carboxamide], half-maximal inhibition (Table of Examples M1-M36) (IC50) required 350 nM.

For `Cc1cc2c(cc1Cl)C(=O)CC1(CCN(C(=O)c3ccc4[nH]ccc4c3)CC1)O2` [Ex. L8, 6-chloro-1′-(1H-indol-5-ylcarbonyl)-7-methylspiro[chromene-2,4′-piperidin]-4(3H)-one], the IC50 (ACC1 from rat liver) is 456 nM.

Under “ACC1 from rat liver”, `Cc1cc2c(cc1C)C(=O)CC1(CCN(C(=O)c3ccc4[nH]c(C(F)(F)F)nc4c3)CC1)O2` [Ex. L25, 6,7-dimethyl-1′-{[2-(trifluoromethyl)-1H-benzimidazol-5-yl]carbonyl}spiro[chromene-2,4′-piperidin]-4(3H)-one trifluoroacetic acid salt] gave an IC50 of 613 nM.

For the compound `Cc1ccc2c(c1)C(=O)CC1(CCN(C(=O)c3cc(C)c4[nH]ncc4c3)CC1)O2` [Ex. A15, 6-methyl-1′-[(7-methyl-1H-indazol-5-yl)carbonyl]spiro[chromene-2,4′-piperidin]-4(3H)-one], for the setting “ACC1 from rat liver”, the IC50 is 53.6 nM.

With `COc1c(C(=O)N2CCC3(CC2)CC(=O)c2cc(C)c(C)cc2O3)cc(Cl)c2nc(C)[nH]c12` [Ex. L27, 1′-[(4-chloro-7-methoxy-2-methyl-1H-benzimidazol-6-yl)carbonyl]-6,7-dimethylspiro[chromene-2,4′-piperidin]-4(3H)-one], the IC50 (ACC1 from rat liver) is > 1000 nM.

`O=C1CC2(CCN(C(=O)c3cccc(-c4cc[nH]n4)c3)CC2)Oc2ccc(C(F)(F)F)cc21` [Ex. M19, 1′-[3-(1H-pyrazol-3-yl)benzoyl]-6-(trifluoromethyl)spiro[chromene-2,4′-piperidin]-4(3H)-one] returned an IC50 (Table of Examples M1-M36) of 418 nM.

Consider `CCOc1ccc(-c2cc[nH]n2)cc1C(=O)N1CCC2(CC1)CC(=O)c1cc(C)c(C)cc1O2` [Ex. P7, 1′-[2-ethoxy-5-(1H-pyrazol-3-yl)benzoyl]-6,7-dimethylspiro[chromene-2,4′-piperidin]-4(3H)-one trifluoroacetic acid salt], for which the IC50 (Table of Examples P1-P15) is < 3000 nM.
